Laboratory results published in PubChem BioAssay AID180 (DTP/NCI, 2004).
Values joined by “and” are separate entries in the source; they are usually repeats but may differ in a detail not shown here. Equal entries are not always repeated.

System: BDF1 mice, Adenocarcinoma 755 s.c., tumor weight T/C
Test: NCI In Vivo Anticancer Drug Screen. Data for tumor model Adenocarcinoma 755 (subcutaneous) in B6D2F1 (BDF1) mice
Conditions: endpoint: mean tumor weight, higher = larger tumour
Method in brief: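 Compound activity was tested in mice carrying transplanted tumors. Survival or tumor size was measured, and each value is the treated-group measurement divided by that of the vehicle-treated control group (T/C).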

## CO[C@@]12[C@H](COC(N)=O)C3=C(C(=O)C(C)=C(N)C3=O)N1C[C@@H]1N[C@@H]12
dose: 0.1 mg/kg/injection, schedule: Q01DX011 (ip), vehicle: carboxymethylcellulose (CMC)
  T/C: 82 % of control
dose: 0.1 mg/kg/injection, schedule: Q01DX011 (ip), vehicle: methylcellulose (MC)
  T/C: 60 % of control
dose: 0.2 mg/kg/injection, schedule: Q01DX011 (ip), vehicle: carboxymethylcellulose (CMC)
  T/C: 79 % of control
dose: 0.25 mg/kg/injection, schedule: Q01DX011 (ip), vehicle: carboxymethylcellulose (CMC)
  T/C: 69 % of control
dose: 0.32 mg/kg/injection, schedule: Q01DX011 (ip), vehicle: carboxymethylcellulose (CMC)
  T/C: 92 % of control and 116 % of control
dose: 0.5 mg/kg/injection, schedule: Q01DX011 (ip), vehicle: carboxymethylcellulose (CMC)
  T/C: 17 % of control
dose: 0.5 mg/kg/injection, schedule: Q01DX011 (ip), vehicle: methylcellulose (MC)
  T/C: 26 % of control
dose: 0.53 mg/kg/injection, schedule: Q01DX011 (ip), vehicle: carboxymethylcellulose (CMC)
  T/C: 63 % of control and 71 % of control
dose: 0.82 mg/kg/injection, schedule: Q01DX011 (ip), vehicle: carboxymethylcellulose (CMC)
  T/C: 22 % of control
dose: 1.0 mg/kg/injection, schedule: Q01DX011 (ip), vehicle: carboxymethylcellulose (CMC)
  T/C: 8 % of control
dose: 1.0 mg/kg/injection, schedule: Q01DX011 (ip), vehicle: methylcellulose (MC)
  T/C: 12 % of control
dose: 1.02 mg/kg/injection, schedule: Q01DX011 (ip), vehicle: carboxymethylcellulose (CMC)
  T/C: 14 % of control
dose: 1.36 mg/kg/injection, schedule: Q01DX011 (ip), vehicle: carboxymethylcellulose (CMC)
  T/C: 5 % of control
dose: 2.0 mg/kg/injection, schedule: Q01DX011 (ip), vehicle: carboxymethylcellulose (CMC)
  T/C: 1 % of control
dose: 180.0 micrograms/kg/injection, schedule: Q01DX011 (ip), vehicle: carboxymethylcellulose (CMC)
  T/C: 89 % of control
dose: 300.0 micrograms/kg/injection, schedule: Q01DX011 (ip), vehicle: carboxymethylcellulose (CMC)
  T/C: 86 % of control
dose: 450.0 micrograms/kg/injection, schedule: Q01DX011 (ip), vehicle: carboxymethylcellulose (CMC)
  T/C: 24 % of control and 29 % of control
dose: 512.0 micrograms/kg/injection, schedule: Q01DX011 (ip), vehicle: carboxymethylcellulose (CMC)
  T/C: 87 % of control
dose: 900.0 micrograms/kg/injection, schedule: Q01DX011 (ip), vehicle: carboxymethylcellulose (CMC)
  T/C: 5 % of control
dose: 1025.0 micrograms/kg/injection, schedule: Q01DX011 (ip), vehicle: carboxymethylcellulose (CMC)
  T/C: 63 % of control
dose: 2050.0 micrograms/kg/injection, schedule: Q01DX011 (ip), vehicle: carboxymethylcellulose (CMC)
  T/C: 8 % of control

## C[C@]12CC[C@H](O)C[C@@H]1CC[C@@H]1[C@@H]2C(=O)C[C@]2(C)C3=CC(=O)O[C@H]3C[C@@H]12
dose: 5.0 mg/kg/injection, schedule: Q01DX011 (sc), vehicle: steriod suspending solution
  T/C: 73 % of control
dose: 10.0 mg/kg/injection, schedule: Q01DX011 (sc), vehicle: steriod suspending solution
  T/C: 69 % of control
dose: 20.0 mg/kg/injection, schedule: Q01DX011 (sc), vehicle: steriod suspending solution
  T/C: 74 % of control
dose: 40.0 mg/kg/injection, schedule: Q01DX011 (sc), vehicle: steriod suspending solution
  T/C: 77 % of control

## O=c1[nH]cc(F)c(=O)[nH]1
dose: 3.38 mg/kg/injection, schedule: Q01DX011 (ip), vehicle: carboxymethylcellulose (CMC)
  T/C: 106 % of control
dose: 3.87 mg/kg/injection, schedule: Q01DX011 (ip), vehicle: carboxymethylcellulose (CMC)
  T/C: 61 % of control
dose: 4.13 mg/kg/injection, schedule: Q01DX011 (ip), vehicle: carboxymethylcellulose (CMC)
  T/C: 48 % of control and 71 % of control
dose: 6.25 mg/kg/injection, schedule: Q01DX011 (ip), vehicle: methylcellulose (MC)
  T/C: 91 % of control
dose: 6.75 mg/kg/injection, schedule: Q01DX011 (ip), vehicle: carboxymethylcellulose (CMC)
  T/C: 75 % of control
dose: 7.75 mg/kg/injection, schedule: Q01DX011 (ip), vehicle: carboxymethylcellulose (CMC)
  T/C: 103 % of control and 85 % of control
dose: 8.27 mg/kg/injection, schedule: Q01DX011 (ip), vehicle: carboxymethylcellulose (CMC)
  T/C: 151 % of control and 159 % of control
dose: 10.8 mg/kg/injection, schedule: Q01DX011 (ip), vehicle: carboxymethylcellulose (CMC)
  T/C: 156 % of control
dose: 12.5 mg/kg/injection, schedule: Q01DX011 (ip), vehicle: methylcellulose (MC)
  T/C: 44 % of control
dose: 13.24 mg/kg/injection, schedule: Q01DX011 (ip), vehicle: carboxymethylcellulose (CMC)
  T/C: 76 % of control
dose: 16.55 mg/kg/injection, schedule: Q01DX011 (ip), vehicle: carboxymethylcellulose (CMC)
  T/C: 100 % of control and 224 % of control and 75 % of control
dose: 18.0 mg/kg/injection, schedule: Q01DX011 (ip), vehicle: carboxymethylcellulose (CMC)
  T/C: 108 % of control
dose: 20.0 mg/kg/injection, schedule: Q01DX011 (ip), vehicle: saline
  T/C: 15 % of control
dose: 22.06 mg/kg/injection, schedule: Q01DX011 (ip), vehicle: carboxymethylcellulose (CMC)
  T/C: 59 % of control
dose: 25.0 mg/kg/injection, schedule: Q01DX011 (ip), vehicle: methylcellulose (MC)
  T/C: 13 % of control
dose: 25.0 mg/kg/injection, schedule: Q01DX011 (ip), vehicle: saline
  T/C: 34 % of control
dose: 27.0 mg/kg/injection, schedule: Q01DX011 (ip), vehicle: carboxymethylcellulose (CMC)
  T/C: 18 % of control and 27 % of control
dose: 30.0 mg/kg/injection, schedule: Q01DX011 (ip), vehicle: saline
  T/C: 11 % of control
dose: 33.1 mg/kg/injection, schedule: Q01DX011 (ip), vehicle: carboxymethylcellulose (CMC)
  T/C: 27 % of control

## C[N+]1(C)CCN(C(=O)CCCl)CC1
dose: 3.1 mg/kg/injection, schedule: Q01DX011 (ip), vehicle: other
  T/C: 47 % of control
dose: 6.2 mg/kg/injection, schedule: Q01DX011 (ip), vehicle: other
  T/C: 93 % of control
dose: 12.5 mg/kg/injection, schedule: Q01DX011 (ip), vehicle: other
  T/C: 66 % of control

## Nc1nc(SCc2ccccc2[N+](=O)[O-])c2[nH]cnc2n1
dose: 3.7 mg/kg/injection, schedule: Q01DX011 (ip), vehicle: carboxymethylcellulose (CMC)
  T/C: 95 % of control
dose: 7.5 mg/kg/injection, schedule: Q01DX011 (ip), vehicle: carboxymethylcellulose (CMC)
  T/C: 90 % of control
dose: 15.0 mg/kg/injection, schedule: Q01DX011 (ip), vehicle: carboxymethylcellulose (CMC)
  T/C: 68 % of control
dose: 30.0 mg/kg/injection, schedule: Q01DX011 (ip), vehicle: carboxymethylcellulose (CMC)
  T/C: 67 % of control
dose: 37.5 mg/kg/injection, schedule: Q01DX011 (ip), vehicle: carboxymethylcellulose (CMC)
  T/C: 2 % of control
dose: 75.0 mg/kg/injection, schedule: Q01DX011 (ip), vehicle: carboxymethylcellulose (CMC)
  T/C: 1 % of control
dose: 300.0 mg/kg/injection, schedule: Q01DX011 (ip), vehicle: carboxymethylcellulose (CMC)
  T/C: 4 % of control

## CN(N=O)C(=O)C1CC(=O)NC(=O)C1
dose: 2.5 mg/kg/injection, schedule: Q01DX011 (ip), vehicle: carboxymethylcellulose (CMC)
  T/C: 39 % of control
dose: 5.0 mg/kg/injection, schedule: Q01DX011 (ip), vehicle: carboxymethylcellulose (CMC)
  T/C: 102 % of control
dose: 10.0 mg/kg/injection, schedule: Q01DX011 (ip), vehicle: carboxymethylcellulose (CMC)
  T/C: 114 % of control

## CCCn1cnc2c(=S)nc(N)[nH]c21
dose: 0.03 mg/kg/injection, schedule: Q01DX011 (ip), vehicle: methylcellulose (MC)
  T/C: 103 % of control
dose: 0.06 mg/kg/injection, schedule: Q01DX011 (ip), vehicle: methylcellulose (MC)
  T/C: 82 % of control
dose: 0.11 mg/kg/injection, schedule: Q01DX011 (ip), vehicle: methylcellulose (MC)
  T/C: 45 % of control
dose: 0.22 mg/kg/injection, schedule: Q01DX011 (ip), vehicle: methylcellulose (MC)
  T/C: 6 % of control and 7 % of control
dose: 0.44 mg/kg/injection, schedule: Q01DX011 (ip), vehicle: methylcellulose (MC)
  T/C: 8 % of control
dose: 0.88 mg/kg/injection, schedule: Q01DX011 (ip), vehicle: methylcellulose (MC)
  T/C: 4 % of control
dose: 1.75 mg/kg/injection, schedule: Q01DX011 (ip), vehicle: methylcellulose (MC)
  T/C: 4 % of control

## OCC1OC(n2cnc3c(Cl)ncnc32)C(O)C1O (centres undefined)
dose: 62.5 mg/kg/injection, schedule: Q01DX011 (ip), vehicle: carboxymethylcellulose (CMC)
  T/C: 153 % of control
dose: 100.0 mg/kg/injection, schedule: Q01DX011 (ip), vehicle: methylcellulose (MC)
  T/C: 72 % of control
dose: 125.0 mg/kg/injection, schedule: Q01DX011 (ip), vehicle: carboxymethylcellulose (CMC)
  T/C: 63 % of control
dose: 200.0 mg/kg/injection, schedule: Q01DX011 (ip), vehicle: methylcellulose (MC)
  T/C: 78 % of control
dose: 250.0 mg/kg/injection, schedule: Q01DX011 (ip), vehicle: carboxymethylcellulose (CMC)
  T/C: 55 % of control
dose: 300.0 mg/kg/injection, schedule: Q01DX011 (ip), vehicle: methylcellulose (MC)
  T/C: 90 % of control
dose: 400.0 mg/kg/injection, schedule: Q01DX011 (ip), vehicle: methylcellulose (MC)
  T/C: 63 % of control
dose: 500.0 mg/kg/injection, schedule: Q01DX011 (ip), vehicle: methylcellulose (MC)
  T/C: 11 % of control
dose: 750.0 mg/kg/injection, schedule: Q01DX011 (ip), vehicle: methylcellulose (MC)
  T/C: 4 % of control
dose: 1000.0 mg/kg/injection, schedule: Q01DX011 (ip), vehicle: methylcellulose (MC)
  T/C: 15 % of control
